{"source": "paper PMC6028453", "about": "“BrlR from Pseudomonas aeruginosa is a receptor for both cyclic di-GMP and pyocyanin” (Nature Communications, 2018)", "molecules": {"B1": {"name": "PbrlR 36-bp (dsDNA)", "DNA 1": "ACCCCTTGACCTTGCCCCAGGGGCAATCCGTAGTCT", "DNA 2": "AGACTACGGATTGCCCCTGGGGCAAGGTCAAGGGGT"}}, "key": {"BrlR [1]": {"molecular_target": "T1, BrlR (Pseudomonas aeruginosa, UniProt Q9HUT5)", "T1 construct": "His6-SUMO (N, cleaved yes); made in house; host or cells: E. coli BL21 DE3", "assay": "Fluorescence polarization (FP) binding assay, wild-type BrlR", "settings": "1 nM fluorescent ligand, 25 °C", "from_the_text": "The most striking feature of the BrlR–c-di-GMP complex is the c-di-GMP-binding mode. The DNA-binding domain contains two separate c-di-GMP-binding sites, and shares a mutually intercalated c-di-GMP dimer in a stacking conformation with a crystallographic symmetry related binding site (Fig. 2a–c). […] The interactions stabilizing the c-di-GMPs are different for the two binding sites (Fig. 2d, e, and details are described in Supplementary Note 1). […] This structural feature allows us to perform fluorescence polarization (FP)-based binding assays[19],[23],[24] by using a fluoresceinated c-di-GMP analog, 2′-Fluo-AHC-c-di-GMP (F-c-di-GMP), containing a fluorophore attached to one of the 2′-ribose hydroxyls (Fig. 2f).\n(§1) F-c-di-GMP and F-c-di-AMP both contain a fluorophore at one of the 2′-ribose hydroxyls of c-di-GMP and c-di-AMP, respectively (Fig. 2f). To measure the binding of c-di-GMP and c-di-AMP to BrlR variants, 1 nM F-c-di-GMP or F-c-di-AMP was incubated with increasing amounts of indicated BrlR WT, BrlR mutation, or BrlR-C in reaction buffer (25 mM HEPES, 100 mM NaCl, pH 7.5) at 25 °C for 20 min. 1 nM fluorescein was incubated with BrlR WT in the same reaction buffer at 25 °C. FP measurements were conducted on a Synergy 4 Microplate Reader (BioTek) at 25 °C. All experiments were performed in triplicate. The curves were fitted to deduce binding affinities by GraphPad Prism 5."}, "[2]": {"molecular_target": "T2, BrlR-C2E mut1 (R31A/D35A/Y40A/Y270A) (Pseudomonas aeruginosa, UniProt Q9HUT5, D35A/R31A/Y270A/Y40A)", "T2 construct": "His6-SUMO (N, cleaved yes); made in house; host or cells: E. coli BL21 DE3", "assay": "FP binding assay, BrlR-C2E mut1", "experimental": "as §1\n(§2) BrlR–c-di-GMPs interactions in two separate c-di-GMP binding sites\n(§3) In the first binding site, c-di-GMP is half accommodated by the antiparallel β-sheet and two residues (M1 and D35). In detail, the backbone amide protons of the first M1 residue form a hydrogen bond (H-bond) with the phosphate oxygen atom of c-di-GMP, and the side chain of R31 forms two H-bonds with the Gua1 base. The residue D35 also forms an H-bond with the Gua1 base. The aromatic ring of Y40 interacts with the Gua1 base through a hydrophobic π-π interaction. In addition, the hydroxyl group of the Y270 side chain from another subunit interacts with the phosphate 2 of c-di-GMP via an H-bond (Fig. 2d). […]"}, "[3]": {"molecular_target": "T3, BrlR-C2E mut2 (R67A/R86A) (Pseudomonas aeruginosa, UniProt Q9HUT5, R67A/R86A)", "T3 construct": "His6-SUMO (N, cleaved yes); made in house; host or cells: E. coli BL21 DE3", "assay": "FP binding assay, BrlR-C2E mut2", "experimental": "as §1, §2, §3"}, "BrlR-C": {"molecular_target": "T4, BrlR-C (Pseudomonas aeruginosa, UniProt Q9HUT5)", "T4 construct": "His6 (cleaved yes); made in house; host or cells: E. coli (same protocol as BrlR, induction at 18 °C)", "assay": "FP competition experiment, BrlR-C", "type": "binding", "settings": "550 μM BrlR-C, 1 nM F-c-di-GMP", "experimental": "Supplementary Figure 11: FP analyses of F-c-di-GMP binding to BrlR-C. (a) Isotherms of BrlR-C binding to F-c-di-GMP. The binding experiment was carried out at 25 °C in a buffer containing 150 mM NaCl, 25 mM Tris·HCl (pH 7.5), and 1 nM F-c-di-GMP. Increasing concentrations of BrlR-C were titrated into the reaction mixture to obtain the binding isotherms. (b) Fluorescence polarization competition experiment of BrlR-C. As a control, 550 μM BrlR-C was added to the reaction tube containing 1 nM F-c-di-GMP, and different competitors were respectively added in the solution and the values of millipolarization were recorded.\n(1 picture or pasted object on this page, not shown here)"}, "BrlR-C domain": {"molecular_target": "T5, BrlR-C domain (Pseudomonas aeruginosa, UniProt Q9HUT5)", "T5 construct": "His6 (cleaved yes); made in house; host or cells: E. coli (same protocol as BrlR, induction at 18 °C)", "assay": "Native gel staining with EB", "type": "binding", "from_the_text": "Fig. 5 The BrlR-C domain can bind to diverse toxic compounds with two adjacent binding pockets. a Structural superpositions of BrlR-C and RH6G-bound SAV2435 (PDB code: 5KAU). The residues in contact with the ligand are shown as stick models and are labeled. Electron density (2Fo - Fc map) for imidazole (blue mesh) binding to the BrlR–c-di-GMP complex is contoured at the 1σ level. b The chemical structures of toxic compounds. c FP analyses of the fluorescein binding to BrlR. The binding curves were fit to deduce the binding affinities. d Two μg of BrlR variants were run on the native gel and stained with EB; the scan results are shown in the upper panel. The proteins were visualized by staining with Coomassie blue in the lower panel. e SPR sensorgram and the resulting affinity fit for pyocyanin binding to BrlR. The ligand binding and dissociation phases for all sensorgrams are shown in the upper panel. The concentrations of a pyocyanin are indicated. The binding responses were measured for 4 s before the end of the injection, and the KD values were calculated using the BIAevaluation software in the lower panel. f The monomeric structure of BrlR-C-3A2P complex. 3A2P, PEG and the conserved residues are shown in stick mode. […]\nof multidrug inducers in their C-terminal multidrug-binding domains1-3. […]\nHowever, much more dimers than tetramers were detected (Supplementary Fig. 13a). […]"}, "BrlR [4]": {"molecular_target": "T1, BrlR", "settings": "ref 1 (Chambers et al., 2014) of response letter; cited from earlier work"}, "BrlR [5]": {"molecular_target": "T6, BrlR (UniProt Q9HUT5 1-270)", "T6 sequence": "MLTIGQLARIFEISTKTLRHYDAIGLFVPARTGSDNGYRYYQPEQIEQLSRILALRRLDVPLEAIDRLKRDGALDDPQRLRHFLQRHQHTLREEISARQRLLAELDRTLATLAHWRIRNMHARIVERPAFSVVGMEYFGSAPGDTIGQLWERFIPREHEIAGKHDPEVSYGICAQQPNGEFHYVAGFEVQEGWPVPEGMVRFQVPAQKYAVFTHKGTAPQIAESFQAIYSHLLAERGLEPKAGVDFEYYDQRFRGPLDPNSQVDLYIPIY", "assay": "EMSA", "settings": "protein: recombinant; tags: none (His6-SUMO removed); chain copies: 4; label: 5' FAM on strand 1; blunt"}, "BrlR C2E mut1": {"molecular_target": "T7, BrlR C2E mut1 (UniProt Q9HUT5 1-270, R31A;D35A;Y40A;Y270A)", "T7 sequence": "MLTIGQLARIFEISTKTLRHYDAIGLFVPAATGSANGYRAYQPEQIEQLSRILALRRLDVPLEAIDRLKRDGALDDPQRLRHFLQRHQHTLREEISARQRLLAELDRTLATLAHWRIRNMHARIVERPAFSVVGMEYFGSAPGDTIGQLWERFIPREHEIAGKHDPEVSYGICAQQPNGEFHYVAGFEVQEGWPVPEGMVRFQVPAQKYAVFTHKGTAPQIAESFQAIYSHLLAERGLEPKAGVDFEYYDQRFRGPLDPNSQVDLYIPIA", "assay": "EMSA; c-di-GMP (increased)", "settings": "protein: recombinant; tags: none (His6-SUMO removed); chain copies: 2; label: 5' FAM on strand 1; blunt"}, "BrlR C2E mut2": {"molecular_target": "T8, BrlR C2E mut2 (UniProt Q9HUT5 1-270, R67A;R86A)", "T8 sequence": "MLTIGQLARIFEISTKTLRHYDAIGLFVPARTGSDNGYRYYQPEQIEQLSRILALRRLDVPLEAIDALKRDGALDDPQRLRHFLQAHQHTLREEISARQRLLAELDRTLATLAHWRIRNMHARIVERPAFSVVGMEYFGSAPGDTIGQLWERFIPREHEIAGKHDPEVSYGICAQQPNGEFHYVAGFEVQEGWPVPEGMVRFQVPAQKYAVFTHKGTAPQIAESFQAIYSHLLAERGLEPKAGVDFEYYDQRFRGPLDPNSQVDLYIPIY", "assay": "EMSA; c-di-GMP (increased)", "settings": "protein: recombinant; tags: none (His6-SUMO removed); chain copies: 2; label: 5' FAM on strand 1; blunt"}}, "data": [{"molecule": "2′-fluo-AHC-c-di-AMP [F-c-di-AMP]", "values": [{"measurement": "Kd", "setting": "BrlR [1]", "value": "12.9 ± 0.7", "unit": "µM"}, {"measurement": "Kd", "setting": "BrlR [1]; listed as 2′-fluo-AHC-c-di-AMP", "value": "12.9 ± 0.65", "unit": "µM"}, {"measurement": "Kd", "setting": "[2]", "value": "63.7 ± 5.1", "unit": "µM"}, {"measurement": "Kd", "setting": "[3]", "value": "10.3 ± 0.2", "unit": "µM"}]}, {"molecule": "CC[n+]1c(-c2ccccc2)c2cc(N)ccc2c2ccc(N)cc21", "note": "[EB, ethidium bromide]", "values": [{"measurement": "competition with F-c-di-GMP binding to BrlR-C", "setting": "BrlR-C", "value": "outcompeted"}, {"measurement": "staining of protein in native gel", "setting": "BrlR-C domain", "value": "readily stained"}]}, {"molecule": "Nc1nc2c(ncn2[C@@H]2O[C@H](COP(=O)(O)OP(=O)(O)OP(=O)(O)O)[C@@H](O)[C@H]2O)c(=O)[nH]1", "note": "[GTP]", "values": [{"measurement": "effect on binding of c-di-GMP to BrlR", "setting": "BrlR [4]", "value": "not affected"}]}, {"molecule": "B1", "values": [{"measurement": "binding result", "setting": "BrlR [5]", "value": "binds"}, {"measurement": "binding result", "setting": "BrlR C2E mut1", "value": "binds"}, {"measurement": "binding result", "setting": "BrlR C2E mut2", "value": "binds"}]}]}
